Assay results taken from US20250188082A1, “Use of Hypoxanthine Compound In Preparation of Drug For Treating Pulmonary Fibrosis” (Sichuan Yiasuo Pharmaceutical Technology Co., Ltd., priority 2022, published 2025).

Tests used:
Type in all cases: in vivo, C57BL/6 mice
[1] = tested on: bleomycin-induced pulmonary fibrosis model; experiment: Advanced pulmonary fibrosis: bleomycin-induced model, dosing from three weeks after modelling; conditions: advanced pulmonary fibrosis, 120 mg/kg/d intragastric, 14 days, from three weeks after model
[2] = tested on: bleomycin-induced pulmonary fibrosis model; experiment: Comparison with comparative drugs: bleomycin-induced model, hydroxyproline and TGF-β; conditions: 120 mg/kg/d intragastric, twice every day, 14 days, from two weeks after model; Day 15
[3] = tested on: influenza A virus-induced pulmonary fibrosis model (FM1 strain of influenza A (H1N1) virus); experiment: Influenza A virus-induced pulmonary fibrosis model; conditions: 120 mg/kg/d intragastric, 14 days
Outline: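 C57BL/6 mice (22-25 g; 9/group) infected intranasally with influenza A (H1N1) FM1 strain on day 1, then given 5 mg/kg intratracheal bleomycin on day 2. From two weeks later, compounds dosed intragastrically at 120 mg/kg/d for 14 days. Endpoints: body weight, mortality, serum NF-κB, TNF-α, IL-1 and IL-6, and lung HE histology with Ashcroft score.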

[4] = tested on: novel coronavirus-induced pulmonary fibrosis model (COVID-19 novel coronavirus strains); experiment: Novel coronavirus-induced pulmonary fibrosis model; conditions: 120 mg/kg/d intragastric, 14 days
[5] = tested on: mycoplasma-induced pulmonary fibrosis model (MPFH strain); experiment: Mycoplasma-induced pulmonary fibrosis model; conditions: 120 mg/kg/d intragastric, 14 days
[6] = serum, influenza A (H1N1) FM1 + bleomycin, from two weeks after model
[7] = serum, COVID-19 novel coronavirus + bleomycin, from two weeks after model
[8] = MPFH mycoplasma + bleomycin, once a day, from two weeks after model

**Q.** For CC(C)n1cnc2c(=O)[nH]cnc21 [Compound 2], which Leucocyte ([1]; blood, Day 15, twice every day) is on record?
**A.** 4.16 10^9/L

**Q.** What about the Lymphocyte ([1]; blood, Day 15, twice every day) of the same molecule?
**A.** 5.29 10^9/L

**Q.** What about the Neutrophil ([1]; blood, Day 15, twice every day) of the same molecule?
**A.** 1.26 10^9/L

**Q.** And the Ashcroft scores ([1]; lung tissue HE staining)?
**A.** 0.88

**Q.** And the “Hydroxyproline in bronchoalveolar lavage fluids” value [2]?
**A.** 0.74 ± 0.05 µg/mg

**Q.** And the “Hydroxyproline in lung tissues” value [2]?
**A.** 1.51 ± 0.08 µg/mg

**Q.** And the “TGF-β in bronchoalveolar lavage fluids” value [2]?
**A.** 4.02 ± 0.15 µg/L

**Q.** What about the “TGF-β in lung tissues” value [2] of the same molecule?
**A.** 24.10 ± 2.14 µg/L

**Q.** What about the Ashcroft scores ([3]; influenza A virus + bleomycin, lung tissue HE) of the same molecule?
**A.** 1.25

**Q.** And the IL-1β [3, 6]?
**A.** 27.1 pg/mL

**Q.** And the IL-6 [3, 6]?
**A.** 62.7 pg/mL

**Q.** And the NF-κB [3, 6]?
**A.** 25.5 pg/mL

**Q.** What about the TNF-α [3, 6] of the same molecule?
**A.** 87.3 pg/mL

**Q.** What about the Ashcroft scores ([4]; novel coronavirus + bleomycin, lung tissue HE) of the same molecule?
**A.** 1.12

**Q.** What about the IL-1β [4, 7] of the same molecule?
**A.** 35.1 pg/mL

**Q.** And the IL-6 [4, 7]?
**A.** 66.0 pg/mL

**Q.** And the NF-κB [4, 7]?
**A.** 23.5 pg/mL

**Q.** What about the TNF-α [4, 7] of the same molecule?
**A.** 64.8 pg/mL

**Q.** And the Leucocyte [5, 8]?
**A.** 6.42 10^9/L

**Q.** What about the Lymphocyte [5, 8] of the same molecule?
**A.** 72.69 10^9/L

**Q.** And the Neutrophil [5, 8]?
**A.** 21.93 10^9/L

**Q.** What about the Ashcroft scores ([5]; mycoplasma + bleomycin, lung tissue HE) of the same molecule?
**A.** 1.20
